According to patent publication US11046660B2, “Compounds and their use as PDE4 activators” (MIRONID LIMITED, priority 2016, dated 2021):

Legend:
[1] = molecular target: T1, full-length human PDE4D5 (Homo sapiens, UniProt Q08499); assay: PDE4D5 long form enzyme activation radio-assay (Experiment 1, Protocol A or B); assay type: biochemical; conditions: 30 μM, mean % increase in counts over basal activity
T1 construct: stably expressed the full-length human PDE4D5, PDE4A4 and PDE4B1 long isoforms; made in house; cytosol fraction of cell lysate
Source text: (§1) Experiment 1: Identification of PDE4 Long Form Activators of the Present Invention Using Full-Length Human PDE4 Isoforms PDE4D5, PDE4A4, PDE4B1 and PDE4B2
(§2) HEK 293 cells were transfected with pDEST™ PDE4 expression vectors using Lipofectamine LTX/Plus reagent (Invitrogen) as outlined by the manufacturer and clonal isolates expanded to obtain cell lines that stably expressed the full-length human PDE4D5, PDE4A4 and PDE4B1 long isoforms and the full length human PDE4B2 short isoform. These were called the HEK-PDE4D5, HEK-PDE4A4, HEK-PDE4B1 and HEK-PDE4B2 cell lines, respectively.
(§3) HEK-PDE4D5 cells were seeded out in 100 mm plates and incubated at 37° C. in an atmosphere of 5% CO2, 95% air. Cell lysates were prepared using KHEM buffer [50 mM KCl, 10 mM EGTA, 50 mM HEPES (pH 7.2), 1.92 mM MgCl2].
(§4) To prepare the cell lysates, the 100 mm plates containing the cells were placed on ice and washed with ice-cold PBS (phosphate buffered saline, pH 7.4). KHEM buffer (500 μl) was added to the cells. Cells were then scraped off the plate and triturated using a needle (BD Microlance™ 0.8, 40 mm). The lysed cells were then centrifuged at 2000 rpm for 10 minutes to remove cell debris and the supernatant (cell lysate containing recombinant PDE4D5) was transferred to a fresh tube and kept on ice.
(§5) The cell lysate containing recombinant PDE4D5 was transferred into a centrifuge tube and placed into an ultracentrifuge (BECKMAN COULTER) and spun at high speed (100,000 g) for 30 minutes at 4° C. The cytosol fraction was then collected and its protein amount determined using a BCA protein assay.
(§6) PDE assays were performed using a final concentration of 10 mM Tris/5 mM MgCl2 and 1 μM [^3H]-cAMP (Perkin Elmer) plus PDE4D5 cell lysate cytosol fraction, containing over-expressed PDE4D5, with and without test compound. Incubations were performed at 30° C. for 5 minutes. The samples were then placed in a boiling water bath for 2 minutes to denature the PDE enzyme, and returned to ice. Samples were allowed to cool for 10 min after which snake venom 5′-nucleotidase (25 μl, 1 mg/ml; Sigma) was added. The tubes were vortexed and incubated in a water bath at 30° C. for 10 minutes, to attain conversion of [^3H]-5′-AMP to [^3H]-adenosine, and then placed on ice. Dowex ion exchange resin (Sigma) prepared as a 1:1 Dowex: water stock was thoroughly re-suspended and diluted 2:1 with ethanol. The resulting Dowex suspension (0.4 ml) was added to each tube. Tubes were vortexed to mix and then incubated on ice for at least 15 minutes before a final vortex. The Dowex resin was pelleted by centrifugation at 13,000 g at 4° C. for 3 minutes and 150 μl of the supernatant was removed to an Eppendorf tube containing 1 ml of ScintiSafe3 scintillation fluid (Fisher). Tubes were vortexed thoroughly to mix and the recovered [^3H]-adenosine was quantified by measuring counts over 1 minute in a scintillation counter.
(§7) The % increase in counts in the presence of test compound at a particular concentration indicates the % increase in enzyme activity at that concentration.
(§8) PDE assays were performed in thin walled V-bottomed 96-well plates. The assays were performed at a final concentration of 10 mM Tris/5 mM MgCl2 plus PDE4D5 cell lysate cytosol fraction, containing over-expressed PDE4D5, with and without test compound. The lysate/compound mix were incubated together for 15 min at room temperature on an orbital shaker prior to addition of [^3H] cAMP (final concentration 1 μM [^3H] cAMP; Perkin Elmer) to a final volume of 50 μl per reaction. The reactions were then incubated for 10 minutes at 30° C., terminated by heating for 2 min at 95° C. and allowed to cool. Snake venom (12.5 μl of 1 mg/ml; Crotalus atrox, Sigma) was then added and the plates were agitated and incubated for a further 15 minutes at 30° C. […]

[2] = molecular target: T2, full-length human PDE4B2 (Homo sapiens, UniProt Q07343); assay: PDE4B2 short form enzyme activation radio-assay (Experiment 1, Protocol A or B); assay type: biochemical; conditions: 30 μM, mean % increase in counts over basal activity
T2 construct: and the full length human PDE4B2 short isoform; made in house; cytosol fraction of cell lysate
Source text: as §1, §2, §3, §4, §5, §6, §7, §8

[3] = system: MDCK cells; assay: Reduction of intracellular cAMP levels in forskolin-stimulated MDCK cells (Experiment 2); assay type: cell-based, canine; conditions: compound 10 μM for 10 min prior to forskolin 10 μM for 2 min; FIG. 2
Method: MDCK cells were seeded at 100,000 cells per well, and left to adhere overnight. The cells were then treated with the test compound (10 μM) for 10 minutes, prior to stimulation with forskolin (10 μM, Sigma) for 2 minutes. Media was aspirated, and hydrochloric acid (0.1M) was added to lyse the cells. The cAMP assay (Enzo Life Sciences) was performed according to the manufacturer's instructions.

[4] = system: MDCK cells; assay: Inhibition of in vitro cyst formation in 3D MDCK culture, PGE2-stimulated (Experiment 3, Protocol D); assay type: cell-based, canine; conditions: 300 nM PGE2-stimulated, FIG. 3
Source text: In this study, the well-established three-dimensional (3D) MDCK cell model is used to investigate the effects of PDE4 long form activators on the formation of kidney cysts and evaluate their potential in the treatment of polycystic kidney diseases. 3D cysts are generated based on the method of Mao et al. (Mao, Z., Streets, A. J., Ong, A. C. M. Am. J. Physiol. Renal Physiol. 300(6): F1375-F1384, 2011), with some modifications.
Type 1 collagen (Invitrogen) is first prepared on ice by neutralising an acidic stock solution (3 mg/ml) with 17 mM NaOH and diluting it to 1 mg/ml with DMEM, supplemented with 2% (v/v) FBS, 2 mM L-glutamine, 1,000 U penicillin and 1,000 μg streptomycin (DMEM-2% FBS). […]
Phase-contrast images are obtained on the Motic microscope (×4 magnification). 8 images are taken per condition and the cyst diameter measured (up to 150 cyst measurements per well). Cyst spheroid volume is calculated using the formula 4/3πr^3 where r is the radius of the spheroid. A mean cyst volume is then calculated per well. The mean cyst volume and standard deviation between the duplicate wells is then calculated and expressed as a % Cyst Volume compared to the vehicle only (DMSO+300 nM PGE2) control wells.

T2 sequence (Q07343 1-564 isoform Q07343-2): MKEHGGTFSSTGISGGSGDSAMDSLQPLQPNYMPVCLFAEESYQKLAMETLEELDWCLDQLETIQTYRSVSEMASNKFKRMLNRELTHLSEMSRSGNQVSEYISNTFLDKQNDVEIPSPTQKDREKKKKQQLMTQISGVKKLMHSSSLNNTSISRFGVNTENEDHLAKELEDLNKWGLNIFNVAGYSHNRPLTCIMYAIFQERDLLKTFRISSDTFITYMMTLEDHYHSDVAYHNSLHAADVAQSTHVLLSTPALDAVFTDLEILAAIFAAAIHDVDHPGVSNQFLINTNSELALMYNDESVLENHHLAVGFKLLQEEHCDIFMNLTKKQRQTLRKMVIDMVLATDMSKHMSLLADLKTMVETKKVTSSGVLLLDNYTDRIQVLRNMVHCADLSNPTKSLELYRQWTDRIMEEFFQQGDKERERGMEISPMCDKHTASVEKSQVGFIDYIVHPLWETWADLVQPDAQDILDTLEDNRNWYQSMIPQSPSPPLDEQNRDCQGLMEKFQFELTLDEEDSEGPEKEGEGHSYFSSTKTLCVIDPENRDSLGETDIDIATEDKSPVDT
T1 sequence (Q08499 1-745 isoform Q08499-6): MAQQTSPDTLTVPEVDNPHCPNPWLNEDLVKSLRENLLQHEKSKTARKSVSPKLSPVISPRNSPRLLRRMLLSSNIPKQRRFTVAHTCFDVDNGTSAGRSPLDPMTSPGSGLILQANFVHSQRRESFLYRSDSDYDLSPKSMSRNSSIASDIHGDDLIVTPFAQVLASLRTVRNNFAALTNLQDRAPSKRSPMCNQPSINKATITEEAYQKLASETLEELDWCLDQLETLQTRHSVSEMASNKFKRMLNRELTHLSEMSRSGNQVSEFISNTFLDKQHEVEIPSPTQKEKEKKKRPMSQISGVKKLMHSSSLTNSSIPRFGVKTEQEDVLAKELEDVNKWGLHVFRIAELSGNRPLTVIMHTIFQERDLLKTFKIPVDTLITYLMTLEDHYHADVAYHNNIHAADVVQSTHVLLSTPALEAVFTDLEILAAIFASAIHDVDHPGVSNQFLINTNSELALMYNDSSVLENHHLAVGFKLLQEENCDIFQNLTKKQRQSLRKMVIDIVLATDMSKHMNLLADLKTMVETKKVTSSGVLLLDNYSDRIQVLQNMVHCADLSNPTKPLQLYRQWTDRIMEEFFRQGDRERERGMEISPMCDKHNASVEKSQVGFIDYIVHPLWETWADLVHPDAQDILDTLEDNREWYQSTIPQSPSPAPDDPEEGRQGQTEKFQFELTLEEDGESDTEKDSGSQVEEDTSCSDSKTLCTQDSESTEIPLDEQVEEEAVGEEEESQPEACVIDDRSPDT

| Structure (SMILES) | activation at 30 µM ([1]; Protocol A) [%] | activation at 30 µM ([2]; Protocol A) [%] | intracellular cAMP levels in MDCK cells (in words) [3] | activation at 30 µM ([1]; Protocol B) [%] | activation at 30 µM ([2]; Protocol B) [%] | cyst formation in 3D culture of MDCK cells (in words) [4] |
| --- | --- | --- | --- | --- | --- | --- |
| COC(=O)c1nc(-c2ccc(Cl)c(F)c2)nn1CC(=O)NCc1cccc(F)c1 [Example 1, Methyl 3-(4-chloro-3-fluorophenyl)-1-{[(3-fluorobenzyl)carbamoyl]methyl}-1H-1,2,4-triazole-5-carboxylate] | 105 | 19.5 | reduction in intracellular cAMP levels |  |  |  |
| CNC(=O)c1nc(-c2ccc(Cl)c(F)c2)nn1CC(=O)NCc1ccc2[nH]ncc2c1 [Example 28, 3-(4-chloro-3-fluorophenyl)-1-({[(1H-indazol-5-yl)methyl]carbamoyl}methyl)-N-methyl-1H-1,2,4-triazole-5-carboxamide] |  |  |  | 101 | -7.9 | inhibition of cyst formation |
